Measurements reported in patent US12215140B2, “Method of stabilizing protein contained in specimen and solution for stabilizing protein contained in specimen” (EIKEN KAGAKU KABUSHIKI KAISHA, priority 2018, dated 2025).

Test system: hemoglobin-haptoglobin complex
Assay: Stability of hemoglobin (as hemoglobin-haptoglobin complex) in samples preserved at 37° C. in preservation solution containing 1 unit/L haptoglobin, Hb measured by latex agglutination method (Examples 1 to 7)
Design: species or system human
Details: arylboronic acid 15 mmol/L, 37° C.
Description: Preservation solutions were prepared with the addition of 40 mmol/L HEPES (pH 6.8), 0.1% BSA, 0.1% NaN3, 1 unit/L haptoglobin, and 0 to 100 mmol/L phenylboronic acid. Samples obtained by adding hemoglobin-added fecal specimens to the preservation solutions so that the fecal concentration would be 0.5% were preserved at 37° C. for 0, 7, 14, and 21 days. The fecal specimens were added with hemoglobin having an amount such that the hemoglobin concentration in the samples would be about 300 μg/L. Instead of the fecal specimens to which hemoglobin was added, samples containing no fecal specimens, in which hemoglobin was added to the preservation solutions so that the hemoglobin concentration in the samples would be 300 μg/L, were similarly preserved. The hemoglobin (Hb) concentrations (μg/L) in the preserved samples were measured by the latex agglutination method.
The concentrations of hemoglobin were measured using “OC-Hemodia (registered trademark) Auto III ‘EIKEN’” (available from EIKEN CHEMICAL CO., LTD.) as a measurement reagent and “OC-sensor DIANA” (available from EIKEN CHEMICAL CO., LTD.) as a measurement device. The above measurement reagent contains latex particles immobilizing an anti-human hemoglobin rabbit polyclonal antibody.
From the measured concentrations of hemoglobin, the recovery ratios (%) were calculated with respect to the hemoglobin concentrations immediately after the fecal specimens were added to the preservation solutions (i.e., concentrations 0 days after the fecal specimens were added).
(§1) For comparative examples, preservation solutions to which no arylboronic acid was added were prepared, and testing was conducted in the same manner.
(§2) The concentration of phenylboronic acid in the preservation solutions of Example 1 was fixed to 15 mmol/L, preservation solutions to which a sugar (sorbitol, sucrose, trehalose, glucose, fructose, or mannitol) was further added at 50 mmol/L or 100 mmol/L or preservation solutions to which no sugar was added were prepared, and testing was conducted in the same manner as in Example 1. For comparative examples, preservation solutions to which the phenylboronic acid and sugar were not added were prepared, and testing was conducted in the same manner.
Preservation solutions in which sorbitol, sucrose, trehalose, glucose, fructose, or mannitol was added at 100 mmol/L to the preservation solutions of Example 1 containing no phenylboronic acid were prepared, and testing was conducted in the same manner as in Example 1. For comparison, the same testing was conducted without adding these sugars.
as §2, with “sorbitol” for “a sugar (sorbitol, sucrose, trehalose, glucose, fructose, or mannitol)”, “was” for “was further”, “10 to 500” for “50”, “sucrose was added at 10 to 250” for “100”
as §1

| SMILES | Hb concentration (Feces 1, 0 days) [µg/L] | Recovery ratio with respect to Hb after 0 days (Feces 1, 0 days) [%] | Hb concentration (Feces 1, 7 days) [µg/L] | Recovery ratio with respect to Hb after 0 days (Feces 1, 7 days) [%] | Hb concentration (Feces 1, 14 days) [µg/L] | Recovery ratio with respect to Hb after 0 days (Feces 1, 14 days) [%] | Hb concentration (Feces 2, 0 days) [µg/L] | Recovery ratio with respect to Hb after 0 days (Feces 2, 0 days) [%] | Hb concentration (Feces 2, 7 days) [µg/L] | Recovery ratio with respect to Hb after 0 days (Feces 2, 7 days) [%] | Hb concentration (Feces 2, 14 days) [µg/L] | Recovery ratio with respect to Hb after 0 days (Feces 2, 14 days) [%] | Hb concentration (Feces 3, 0 days) [µg/L] | Recovery ratio with respect to Hb after 0 days (Feces 3, 0 days) [%] | Hb concentration (Feces 3, 7 days) [µg/L] | Recovery ratio with respect to Hb after 0 days (Feces 3, 7 days) [%] | Hb concentration (Feces 3, 14 days) [µg/L] | Recovery ratio with respect to Hb after 0 days (Feces 3, 14 days) [%] | Hb concentration (No feces, 0 days) [µg/L] | Recovery ratio with respect to Hb after 0 days (No feces, 0 days) [%] | also measured |
| --- | --- | --- | --- | --- | --- | --- | --- | --- | --- | --- | --- | --- | --- | --- | --- | --- | --- | --- | --- | --- | --- |
| O=C(O)c1ccccc1B(O)O [2C-PBA, 2-carboxyphenylboronic acid] | 315 | 100 | 196 | 62 | 150 | 48 | 311 | 100 | 157 | 50 | 103 | 33 | 300 | 100 | 124 | 41 | 76 | 25 | 292 | 100 | Hb concentration (No feces, 7 days): 272 µg/L; Recovery ratio with respect to Hb after 0 days (No feces, 7 days): 93%; Hb concentration (No feces, 14 days): 264 µg/L; Recovery ratio with respect to Hb after 0 days (No feces, 14 days): 90% |
| O=C(O)c1ccc(B(O)O)cc1 [4C-PBA, 4-carboxyphenylboronic acid] | 312 | 100 | 252 | 81 | 234 | 75 | 315 | 100 | 239 | 76 | 227 | 72 | 300 | 100 | 219 | 73 | 194 | 65 | 279 | 100 | Hb concentration (No feces, 7 days): 275 µg/L; Recovery ratio with respect to Hb after 0 days (No feces, 7 days): 98%; Hb concentration (No feces, 14 days): 271 µg/L; Recovery ratio with respect to Hb after 0 days (No feces, 14 days): 97% |
